# Data from patent US11414689B2, “Hydrolysis of steviol glycosides by beta-glucosidase” (Conagen Inc., priority 2017, dated 2022).
# B1: B-glu1: Pichia pastoris (GS115) beta-glucosidase, SEQ ID NO: 1, His-tagged, expressed in E. coli (protein, listed as Pichia pastoris)
# chain: MTQLDVESLIQELTLNEKVQLLSGSDFWHTTPVRRLGIPKMRLSDGPNGVRGTKFFNGVPTACFPCGTGLGATFDKELLKEAGSLMADEAKAKAASVVLGPTANIARGPNGGRGFESFGEDPVVNGLSSAAMINGLQGKYIAATMKHYVCNDLEMDRNCIDAQVSHRALREVYLLPFQIAVRDANPRAIMTAYNKANGEHVSQSKFLLDEVLRKEWGWDGLLMSDWFGVYDAKSSITNGLDLEMPGPPQCRVHSATDHAINSGEIHINDVDERVRSLLSLINYCHQSGVTEEDPETSDNNTPETIEKLRKISRESIVLLKDDDRNRSILPLKKSDKIAVIGNNAKQAAYCGGGSASVLSYHTTTPFDSIKSRLEDSNTPAYTIGADAYKNLPPLGPQMTDSDGKPGFDAKFFVGSPTSKDRKLIDHFQLTNSQVFLVDYYNEQIPENKEFYVDVEGQFIPEEDGTYNFGLTVFGTGRLFVDDKLVSDSSQNQTPGDSFFGLAAQEVIGSIHLVKGKAYKIKVLYGSSVTRTYEIAASVAFEGGAFTFGAAKQRNEDEEIARAVEIAKANDKVVLCIGLNQDFESEGFDRPDIKIPGATNKMVSAVLKANPNTVIVNQTGTPVEMPWASDAPVILQAWFGGSEAGTAIADVLFGDYNPSGKLTVTFPLRFEDNPAYLNFQSNKQACWYGEDVYVGYRYYETIDRPVLFPFGHGLSFTEFDFTDMFVRLEEENLEVEVVVRNTGKYDGAEVVQLYVAPVSPSLKRPIKELKEYAKIFLASGEAKTVHLSVPIKYATSFFDEYQKKWCSEKGEYTILLGSSSADIKVSQSITLEKTTFWKGL
# modifications: His tag
# Columns and labels:
# [1] = test system: Beta-glucosidase (B-glu1, SEQ: 1); test: de-glycosylation (hydrolysis) of steviol glycosides by purified recombinant B-glu1, HPLC analysis; assay type: biochemical, Pichia pastoris; details: for extent of conversion by recombinant B-glu1 at 24 hrs: 1 g/L substrate; for Products of hydrolysis of steviol glycoside substrate by B-glu1: recombinant B-glu1 10 μg in 300 μl, 1 mg/ml steviol glycoside, 50 mM potassium phosphate pH 7.2, 30-37° C.
# From the text: According to the current disclosure Pichia pastoris genome analysis was completed and several beta-glycosidase candidate genes were identified. Full length DNA fragments of all candidate beta-glucosidase genes were commercially synthesized. Almost all codons of the cDNA were changed to those preferred for E. coli (Genscript, NJ). The synthesized DNA was cloned into a bacterial expression vector pETite N-His SUMO Kan Vector (Lucigen). These same experiments could be performed in Yarrowia lipolytica with sequences optimized for such use.
# Each expression construct was transformed into E. coli BL21 (DE3), which was subsequently grown in LB media containing 50 μg/mL kanamycin at 37° C. until reaching an OD600 of 0.8-1.0. Protein expression was induced by addition of 1 mM isopropyl β-D-1-thiogalactopyranoside (IPTG) and the culture was further grown at 16° C. for 22 hr. Cells were harvested by centrifugation (3,000×g; 10 min; 4° C.). The cell pellets were collected and were either used immediately or stored at −80° C.
# The cell pellets typically were re-suspended in lysis buffer (50 mM potassium phosphate buffer, pH 7.2, 25 ug/ml lysozyme, 5 ug/ml DNase I, 20 mM imidazole, 500 mM NaCl, 10% glycerol, and 0.4% Triton X-100). The cells were disrupted by sonication under 4° C., and the cell debris was clarified by centrifugation (18,000×g; 30 min). Supernatant was loaded to an equilibrated (equilibration buffer: 50 mM potassium phosphate buffer, pH 7.2, 20 mM imidazole, 500 mM NaCl, 10% glycerol) Ni-NTA (Qiagen) affinity column. After loading of protein sample, the column was washed with equilibration buffer to remove unbound contaminant proteins. The His-tagged beta-glucosidase recombinant polypeptides were eluted by equilibration buffer containing 250 mM imidazole.
# The purified candidate beta-glucosidase recombinant polypeptides were assayed for de-glycosylation activity by using various steviol glycosides as substrate. Typically, the recombinant polypeptide (10 μg) was tested in a 300 μl in vitro reaction system. The reaction system contains 50 mM potassium phosphate buffer, pH 7.2, 1 mg/ml steviol glycoside. The reaction was performed at 30-37° C. and 50 ul reaction was terminated by adding 200 μL 1-butanol at various time points. The samples were extracted three times with 200 μL 1-butanol. The pooled fraction was dried and dissolved in 100 μL 80% methanol for high-performance liquid chromatography (HPLC) analysis.
# HPLC analysis was then performed using a Dionex UPLC ultimate 3000 system (Sunnyvale, Calif.), including a quaternary pump, a temperature controlled column compartment, an auto sampler and a UV absorbance detector. A Synergi Hydro-RP column (Phenomenex) with guard column was used for the characterization of steviol glycosides in the pooled samples. Acetonitrile in water was used mobile phase in the HPLC analysis. The detection wavelength used in the HPLC analysis was 210 nm.
# [2] = test system: disrupted Pichia cells (released B-glu1 enzyme); test: hydrolysis of steviol glycosides by disrupted Pichia cells (crude extract), HPLC analysis; assay type: biochemical, Pichia pastoris; details: crude protein 50 ug in 300 ul, 1 g/L substrate, pH 7.2, 30-37° C.; FIG. 8 samples at 24 hours
# Procedure: Pichia cells were suspended in extraction buffer (50 mM potassium phosphate buffer, pH 7.2; 150 mM NaCl). After sonication, the supernatant (crude extract) was collected by centrifuge set at 12,000 g at 4° C. The resulting crude protein (50 ug) was tested in a 300 ul in vitro reaction system. The reaction system contains 50 mM potassium phosphate buffer, pH 7.2, 1 mg/ml steviol glycoside. The reaction was performed at 30-37° C. and 50 ul reaction was terminated by adding 200 μL 1-butanol at various time points. The samples were extracted three times with 200 μL 1-butanol. The pooled fraction was dried and dissolved in 100 μL 80% methanol for high-performance liquid chromatography (HPLC) analysis. HPLC analysis was then performed using a Dionex UPLC ultimate 3000 system (Sunnyvale, Calif.), including a quaternary pump, a temperature controlled column compartment, an auto sampler and a UV absorbance detector. A Synergi Hydro-RP column (Phenomenex) with guard column was used for the characterization of steviol glycosides in the pooled samples. Acetonitrile in water was used mobile phase in the HPLC analysis. The detection wavelength used in the HPLC analysis was 210 nm.
Molecule,Products of hydrolysis of steviol glycoside substrate by B-glu1 [1],Products of hydrolysis by disrupted Pichia cells [2],other results
"C=C1C[C@@]23CC[C@H]4[C@@](C)(CCC[C@@]4(C)C(=O)O[C@@H]4O[C@H](CO)[C@@H](O)[C@H](O[C@@H]5O[C@H](CO)[C@@H](O)[C@H](O)[C@H]5O)[C@H]4O)[C@@H]2CC[C@]1(O[C@@H]1O[C@H](CO)[C@@H](O)[C@H](O[C@@H]2O[C@H](CO)[C@@H](O)[C@H](O)[C@H]2O)[C@H]1O[C@@H]1O[C@H](CO)[C@@H](O)[C@H](O)[C@H]1O)C3 [Reb 1, rebaudioside I]","Reb A, Reb B",rebaudioside B,extent of conversion by recombinant B-glu1 at 24 hrs [1]: completely; Products of hydrolysis of steviol glycoside substrate by B-glu1 ([1]; listed as Rebaudioside I): rebaudioside A and the produced A can be hydrolyzed to produce rebaudioside B
"C=C1C[C@@]23CC[C@H]4[C@@](C)(CCC[C@@]4(C)C(=O)O[C@@H]4O[C@H](CO)[C@@H](O)[C@H](O)[C@H]4O)[C@@H]2CC[C@]1(O[C@@H]1O[C@H](CO)[C@@H](O)[C@H](O[C@@H]2O[C@H](CO)[C@@H](O)[C@H](O)[C@H]2O)[C@H]1O[C@@H]1O[C@H](CO)[C@@H](O)[C@H](O)[C@H]1O)C3 [Reb A, rebaudioside A]",Reb B,rebaudioside B,Products of hydrolysis of steviol glycoside substrate by B-glu1 ([1]; listed as Rebaudioside A): rebaudioside B
"C=C1C[C@@]23CC[C@H]4[C@@](C)(CCC[C@@]4(C)C(=O)O[C@@H]4O[C@H](CO)[C@@H](O)[C@H](O)[C@H]4O[C@@H]4O[C@H](CO)[C@@H](O)[C@H](O)[C@H]4O)[C@@H]2CC[C@]1(O[C@@H]1O[C@H](CO)[C@@H](O)[C@H](O[C@@H]2O[C@H](CO)[C@@H](O)[C@H](O)[C@H]2O)[C@H]1O[C@@H]1O[C@H](CO)[C@@H](O)[C@H](O)[C@H]1O)C3 [Reb D, rebaudioside D]",Reb B,rebaudioside B,Products of hydrolysis of steviol glycoside substrate by B-glu1 ([1]; listed as Rebaudioside D): rebaudioside B (FIG. 6B) and Reb A
"C=C1C[C@@]23CC[C@H]4[C@@](C)(CCC[C@@]4(C)C(=O)O[C@@H]4O[C@H](CO)[C@@H](O)[C@H](O)[C@H]4O[C@@H]4O[C@H](CO)[C@@H](O)[C@H](O)[C@H]4O)[C@@H]2CC[C@]1(O[C@@H]1O[C@H](CO)[C@@H](O)[C@H](O)[C@H]1O[C@@H]1O[C@H](CO)[C@@H](O)[C@H](O)[C@H]1O)C3 [Reb E, rebaudioside E]","stevioside, Steviolbioside (SB)",steviolbioside,Products of hydrolysis of steviol glycoside substrate by B-glu1 ([1]; listed as Rebaudioside E): stevioside and steviolbioside
"C=C1C[C@@]23CC[C@H]4[C@@](C)(CCC[C@@]4(C)C(=O)O[C@@H]4O[C@H](CO)[C@@H](O)[C@H](O)[C@H]4O)[C@@H]2CC[C@]1(O[C@@H]1O[C@H](CO)[C@@H](O)[C@H](O[C@@H]2O[C@H](CO)[C@@H](O)[C@H](O)[C@H]2O)[C@H]1O)C3 [Reb G, rebaudioside G]","Steviol-13-O-glucoside (S-13-G), steviol",steviol-13-glucoside and continually to produce steviol,Products of hydrolysis of steviol glycoside substrate by B-glu1 ([1]; listed as Rebaudioside G): steviol-13-glucoside
"C=C1C[C@@]23CC[C@H]4[C@@](C)(CCC[C@@]4(C)C(=O)O[C@@H]4O[C@H](CO)[C@@H](O)[C@H](O[C@@H]5O[C@H](CO)[C@@H](O)[C@H](O)[C@H]5O)[C@H]4O[C@@H]4O[C@H](CO)[C@@H](O)[C@H](O)[C@H]4O)[C@@H]2CC[C@]1(O[C@@H]1O[C@H](CO)[C@@H](O)[C@H](O[C@@H]2O[C@H](CO)[C@@H](O)[C@H](O)[C@H]2O)[C@H]1O[C@@H]1O[C@H](CO)[C@@H](O)[C@H](O)[C@H]1O)C3 [Reb M, rebaudioside M]",No cleavage,,
"C=C1C[C@@]23CC[C@H]4[C@@](C)(CCC[C@@]4(C)C(=O)O[C@@H]4O[C@H](CO)[C@@H](O)[C@H](O)[C@H]4O)[C@@H]2CC[C@]1(O[C@@H]1O[C@H](CO)[C@@H](O)[C@H](O)[C@H]1O)C3 [Rub, rubusoside]","Steviol-13-O-glucoside (S-13-G), steviol",steviol-13-glucoside and continually to produce steviol,Products of hydrolysis of steviol glycoside substrate by B-glu1 ([1]; listed as Rubusoside): steviol-13-glucoside
C=C1C[C@@]23CC[C@H]4[C@@](C)(CCC[C@@]4(C)C(=O)O)[C@@H]2CC[C@]1(O[C@@H]1O[C@H](CO)[C@@H](O)[C@H](O)[C@H]1O)C3 [steviol-13-glucoside],steviol,,extent of conversion by recombinant B-glu1 at 24 hrs [1]: completely
rebaudioside B [Reb B],No cleavage,,
B1,,,activity to cleave related steviol glycosides ([1]; activity screening of candidate Pichia pastoris beta-glucosidases): strong activity
